# Measurements from PubChem BioAssay (NCI).
#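 Assay format: 96-well plates, 48-hour exposure. GI50 = concentration required for 50% inhibition of growth. TGI marks complete inhibition of growth.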
# Legend:
# Experiment in all cases: NCI anticancer screen, dose series, 48 h
# NCI-H522 lung = test system: NCI-H522 lung
# SF-539 CNS = test system: SF-539 CNS
# SF-295 CNS = test system: SF-295 CNS
# T-47D breast = test system: T-47D breast
# HCT-15 colon = test system: HCT-15 colon
# DU-145 prostate = test system: DU-145 prostate
# NCI-H226 lung = test system: NCI-H226 lung
# 786-0 renal = test system: 786-0 renal
# MOLT-4 leukemia = test system: MOLT-4 leukemia
# SF-268 CNS = test system: SF-268 CNS
# HT29 colon = test system: HT29 colon
# NCI/ADR-RES ovarian = test system: NCI/ADR-RES ovarian
# HOP-92 NSCLC = test system: HOP-92 NSCLC
# A549 NSCLC = test system: A549 NSCLC
# MALME-3M melanoma = test system: MALME-3M melanoma
# MCF7 breast = test system: MCF7 breast
# PC-3 prostate = test system: PC-3 prostate
# CAKI-1 renal = test system: CAKI-1 renal
# IGROV1 ovarian = test system: IGROV1 ovarian
# EKVX NSCLC = test system: EKVX NSCLC
# SW-620 colon = test system: SW-620 colon
# NCI-H460 lung = test system: NCI-H460 lung
# OVCAR-4 ovarian = test system: OVCAR-4 ovarian
# MDA-MB-231 breast = test system: MDA-MB-231 breast
# BT-549 breast = test system: BT-549 breast
# HS 578T breast = test system: HS 578T breast
# UO-31 renal = test system: UO-31 renal
# K-562 leukemia = test system: K-562 leukemia
# ACHN renal = test system: ACHN renal
# OVCAR-3 ovarian = test system: OVCAR-3 ovarian
# SNB-19 CNS = test system: SNB-19 CNS
# HCT-116 colon = test system: HCT-116 colon
# MDA-MB-435 = test system: MDA-MB-435
# NCI-H23 lung = test system: NCI-H23 lung
# SK-MEL-5 melanoma = test system: SK-MEL-5 melanoma
# TK-10 renal = test system: TK-10 renal
# OVCAR-5 ovarian = test system: OVCAR-5 ovarian
# SK-OV-3 ovarian = test system: SK-OV-3 ovarian
# SR leukemia = test system: SR leukemia
# OVCAR-8 ovarian = test system: OVCAR-8 ovarian
# COLO 205 colon = test system: COLO 205 colon
# KM12 colon = test system: KM12 colon
# A498 renal = test system: A498 renal
# M14 melanoma = test system: M14 melanoma
# HCC-2998 colon = test system: HCC-2998 colon
# HL-60(TB) leukemia = test system: HL-60(TB) leukemia
# RXF 393 renal = test system: RXF 393 renal
# CCRF-CEM leukemia = test system: CCRF-CEM leukemia
# RPMI-8226 leukemia = test system: RPMI-8226 leukemia
# LOX IMVI melanoma = test system: LOX IMVI melanoma
# SK-MEL-2 melanoma = test system: SK-MEL-2 melanoma
# SNB-75 CNS = test system: SNB-75 CNS
# SK-MEL-28 melanoma = test system: SK-MEL-28 melanoma
# SN12C renal = test system: SN12C renal
# HOP-62 NSCLC = test system: HOP-62 NSCLC
# UACC-257 melanoma = test system: UACC-257 melanoma
# U251 CNS = test system: U251 CNS
smiles,measurement,setting,value
CS(=O)(=O)c1ccc(-c2cnc(NCc3ccco3)n3cnnc23)cc1,GI50,NCI-H522 lung,> 100 µM
same,TGI,NCI-H522 lung,> 100 µM
same,GI50,SF-539 CNS,> 100 µM
same,TGI,SF-539 CNS,> 100 µM
same,GI50,SF-295 CNS,> 100 µM
same,TGI,SF-295 CNS,> 100 µM
same,GI50,T-47D breast,47.8 µM
same,TGI,T-47D breast,> 100 µM
same,GI50,HCT-15 colon,> 100 µM
same,TGI,HCT-15 colon,> 100 µM
same,GI50,DU-145 prostate,> 100 µM
same,TGI,DU-145 prostate,> 100 µM
same,GI50,NCI-H226 lung,49 µM
same,TGI,NCI-H226 lung,> 100 µM
same,GI50,786-0 renal,> 100 µM
same,TGI,786-0 renal,> 100 µM
same,GI50,MOLT-4 leukemia,37.4 µM
same,TGI,MOLT-4 leukemia,> 100 µM
same,GI50,SF-268 CNS,> 100 µM
same,TGI,SF-268 CNS,> 100 µM
same,GI50,HT29 colon,28.8 µM
same,TGI,HT29 colon,> 100 µM
same,GI50,NCI/ADR-RES ovarian,> 100 µM
same,TGI,NCI/ADR-RES ovarian,> 100 µM
same,GI50,HOP-92 NSCLC,21.4 µM
same,TGI,HOP-92 NSCLC,> 100 µM
same,GI50,A549 NSCLC,> 100 µM
same,TGI,A549 NSCLC,> 100 µM
same,GI50,MALME-3M melanoma,27.5 µM
same,TGI,MALME-3M melanoma,> 100 µM
same,GI50,MCF7 breast,60.4 µM
same,TGI,MCF7 breast,> 100 µM
same,GI50,PC-3 prostate,57.8 µM
same,TGI,PC-3 prostate,> 100 µM
same,GI50,CAKI-1 renal,> 100 µM
same,TGI,CAKI-1 renal,> 100 µM
same,GI50,IGROV1 ovarian,> 100 µM
same,TGI,IGROV1 ovarian,> 100 µM
same,GI50,EKVX NSCLC,> 100 µM
same,TGI,EKVX NSCLC,> 100 µM
same,GI50,SW-620 colon,> 100 µM
same,TGI,SW-620 colon,> 100 µM
same,GI50,NCI-H460 lung,> 100 µM
same,TGI,NCI-H460 lung,> 100 µM
same,GI50,OVCAR-4 ovarian,> 100 µM
same,TGI,OVCAR-4 ovarian,> 100 µM
same,GI50,MDA-MB-231 breast,41.4 µM
same,TGI,MDA-MB-231 breast,> 100 µM
same,GI50,BT-549 breast,> 100 µM
same,TGI,BT-549 breast,> 100 µM
same,GI50,HS 578T breast,> 100 µM
same,TGI,HS 578T breast,> 100 µM
same,GI50,UO-31 renal,38.8 µM
same,TGI,UO-31 renal,> 100 µM
same,GI50,K-562 leukemia,72.6 µM
same,TGI,K-562 leukemia,> 100 µM
same,GI50,ACHN renal,> 100 µM
same,TGI,ACHN renal,> 100 µM
same,GI50,OVCAR-3 ovarian,> 100 µM
same,TGI,OVCAR-3 ovarian,> 100 µM
same,GI50,SNB-19 CNS,> 100 µM
same,TGI,SNB-19 CNS,> 100 µM
same,GI50,HCT-116 colon,> 100 µM
same,TGI,HCT-116 colon,> 100 µM
same,GI50,MDA-MB-435,54.5 µM
same,TGI,MDA-MB-435,> 100 µM
same,GI50,NCI-H23 lung,> 100 µM
same,TGI,NCI-H23 lung,> 100 µM
same,GI50,SK-MEL-5 melanoma,31.7 µM
same,TGI,SK-MEL-5 melanoma,> 100 µM
same,GI50,TK-10 renal,> 100 µM
same,TGI,TK-10 renal,> 100 µM
same,GI50,OVCAR-5 ovarian,> 100 µM
same,TGI,OVCAR-5 ovarian,> 100 µM
same,GI50,SK-OV-3 ovarian,> 100 µM
same,TGI,SK-OV-3 ovarian,> 100 µM
same,GI50,SR leukemia,> 100 µM
same,TGI,SR leukemia,> 100 µM
same,GI50,OVCAR-8 ovarian,> 100 µM
same,TGI,OVCAR-8 ovarian,> 100 µM
same,GI50,COLO 205 colon,28.7 µM
same,TGI,COLO 205 colon,> 100 µM
same,GI50,KM12 colon,> 100 µM
same,TGI,KM12 colon,> 100 µM
same,GI50,A498 renal,> 100 µM
same,TGI,A498 renal,> 100 µM
same,GI50,M14 melanoma,27 µM
same,TGI,M14 melanoma,> 100 µM
same,GI50,HCC-2998 colon,> 100 µM
same,TGI,HCC-2998 colon,> 100 µM
same,GI50,HL-60(TB) leukemia,39.7 µM
same,TGI,HL-60(TB) leukemia,> 100 µM
same,GI50,RXF 393 renal,> 100 µM
same,TGI,RXF 393 renal,> 100 µM
same,GI50,CCRF-CEM leukemia,38 µM
same,TGI,CCRF-CEM leukemia,> 100 µM
same,GI50,RPMI-8226 leukemia,53.3 µM
same,TGI,RPMI-8226 leukemia,> 100 µM
same,GI50,LOX IMVI melanoma,60.1 µM
same,TGI,LOX IMVI melanoma,> 100 µM
same,GI50,SK-MEL-2 melanoma,66.6 µM
same,TGI,SK-MEL-2 melanoma,> 100 µM
same,GI50,SNB-75 CNS,> 100 µM
same,TGI,SNB-75 CNS,> 100 µM
same,GI50,SK-MEL-28 melanoma,25.3 µM
same,TGI,SK-MEL-28 melanoma,> 100 µM
same,GI50,SN12C renal,> 100 µM
same,TGI,SN12C renal,> 100 µM
same,GI50,HOP-62 NSCLC,> 100 µM
same,TGI,HOP-62 NSCLC,> 100 µM
same,GI50,UACC-257 melanoma,24.7 µM
same,TGI,UACC-257 melanoma,> 100 µM
same,GI50,U251 CNS,> 100 µM
same,TGI,U251 CNS,> 100 µM
